Patent US6350775B1, “3-phenyl-furan-(5H)-2-one and dihydrofuran-2-one derivatives as antibacterial agents” (priority 1996, dated 2002)
≈ marks a conversion by molar mass, not a printed value.

Tests used:
Type in all cases: cell-based
[1] = system: Streptococcus pyogenes C203; experiment: MIC by agar-dilution, Streptococcus pyogenes C203; settings: agar with 5% defibrinated horse blood, 10^4 CFU/spot, 37° C., 5% carbon dioxide, 48 hours
Description: (§1) The following results were obtained on a standard in vitro test system. The activity is described in terms of the minimum inhibitory concentration (MIC) determined by the agar-dilution technique with an inoculum size of 10^4 CFU/spot. Staphylococci were tested on agar, using an inoculum of 10^4 CFU/spot and an incubation temperature of 37° C. for 24 hours—standard test conditions for the expression of methicillin resistance.
(§2) Streptococci and enterococci were tested on agar supplemented with 5% defibrinated horse blood, an inoculum of 10^4 CFU/spot and an incubation temperature of 37° C. in an atmosphere of 5% carbon dioxide for 48 hours—blood is required for the growth of some of the test organisms.

[2] = system: Staphylococcus aureus MRQR (methicillin resistant quinolone resistant); experiment: MIC by agar-dilution, Staphylococcus aureus MRQR; settings: 10^4 CFU/spot, 37° C., 24 hours
Description: as §1

Enterococcus faecalis = experiment: MIC by agar-dilution, Enterococcus faecalis; settings: agar with 5% defibrinated horse blood, 10^4 CFU/spot, 37° C., 5% carbon dioxide, 48 hours
Description: as §1, §2

[3] = system: Coagulase Negative Staphylococcis MS; experiment: MIC by agar-dilution, Coagulase Negative Staphylococci MS; settings: 10^4 CFU/spot, 37° C., 24 hours
Description: as §1

Bacillus subtilis = experiment: MIC by agar-dilution, Bacillus subtilis; settings: 10^4 CFU/spot
Description: as §1

[4] = system: Staphylococcus aureus Novb. Res (Novobiocin resistant); experiment: MIC by agar-dilution, Staphylococcus aureus Novb. Res; settings: 10^4 CFU/spot, 37° C., 24 hours
Description: as §1

[5] = system: Staphylococcus aureus MRQS (methicillin resistant quinolone sensitive); experiment: MIC by agar-dilution, Staphylococcus aureus MRQS; settings: 10^4 CFU/spot, 37° C., 24 hours
Description: as §1

[6] = system: Staphylococcus aureus Oxford; experiment: MIC by agar-dilution, Staphylococcus aureus Oxford; settings: 10^4 CFU/spot, 37° C., 24 hours
Description: as §1

[7] = system: Coagulase Negative Staphylococcis MR (methicillin resistant); experiment: MIC by agar-dilution, Coagulase Negative Staphylococci MR; settings: 10^4 CFU/spot, 37° C., 24 hours
Description: as §1

## CC(=O)NC[C@H]1CC(c2ccc(C3=CCN(C(=O)CO)CC3)cc2)C(=O)O1 (stereo partly drawn) [Example 5, 5R,3RS-5-Acetamidomethyl-3-(4-[1-hydroxyacetyl-1,2,5,6-tetrahydropyrid-4-yl]phenyl)dihydrofuran-2(3H)-one]
[1]
  MIC: 8.0 µg/mL (≈ 21.5 µM)
[2]
  MIC: 8.0 µg/mL (≈ 21.5 µM)
Enterococcus faecalis
  MIC: 8.0 µg/mL (≈ 21.5 µM)
[3]
  MIC: 2.0 µg/mL (≈ 5.37 µM)
Bacillus subtilis
  MIC: 4.0 µg/mL (≈ 10.7 µM)
[4]
  MIC: 4.0 µg/mL (≈ 10.7 µM)
[5]
  MIC: 4.0 µg/mL (≈ 10.7 µM)
[6]
  MIC: 4.0 µg/mL (≈ 10.7 µM)
[7]
  MIC: 4.0 µg/mL (≈ 10.7 µM)
